Results taken from US20190048016A1, “SUBSTITUTED BRIDGED UREA ANALOGS AS SIRTUIN MODULATORS” (GlaxoSmithKline Intellectual Property(No.2)Limited, priority 2014, published 2019).
Where a name gives a salt, the structure may show the parent alone.

Target: T1, SIRT1 (Homo sapiens, UniProt Q96EB6)
T1 sequence (Q96EB6 1-747): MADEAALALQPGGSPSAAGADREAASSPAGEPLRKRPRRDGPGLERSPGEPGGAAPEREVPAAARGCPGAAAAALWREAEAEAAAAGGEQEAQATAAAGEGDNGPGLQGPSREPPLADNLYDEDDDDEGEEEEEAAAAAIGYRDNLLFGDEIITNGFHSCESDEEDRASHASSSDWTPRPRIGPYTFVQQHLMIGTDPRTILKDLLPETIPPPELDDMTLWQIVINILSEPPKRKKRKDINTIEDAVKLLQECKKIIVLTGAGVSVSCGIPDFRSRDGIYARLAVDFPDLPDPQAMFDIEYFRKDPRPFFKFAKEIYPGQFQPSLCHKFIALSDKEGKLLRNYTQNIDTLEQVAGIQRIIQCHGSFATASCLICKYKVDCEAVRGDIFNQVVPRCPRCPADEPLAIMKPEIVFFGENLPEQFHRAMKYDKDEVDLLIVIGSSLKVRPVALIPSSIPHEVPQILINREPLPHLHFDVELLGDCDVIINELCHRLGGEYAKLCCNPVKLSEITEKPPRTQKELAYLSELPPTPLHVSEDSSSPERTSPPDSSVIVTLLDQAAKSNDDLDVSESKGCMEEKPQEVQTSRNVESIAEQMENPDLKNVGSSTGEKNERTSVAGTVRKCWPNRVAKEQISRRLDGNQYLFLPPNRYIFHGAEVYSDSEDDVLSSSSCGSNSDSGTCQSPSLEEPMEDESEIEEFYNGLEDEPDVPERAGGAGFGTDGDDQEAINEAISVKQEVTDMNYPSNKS
Experiment: Trp mass spectrometry assay of SIRT1 activation (deacetylation of Ac-R-H-K-K(Ac)-W-NH2 peptide, OAADPR formation)
Type: biochemical
Details: Trp peptide 0.5 μM, 120 μM βNAD+, 10 nM SIRT1, 25 min, 25° C.; for Emax: 25 min, read-out: TRP MAX RESP (percent maximum fold activation relative to control = 100%)
Summary of the method: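 10 nM His-tagged SIRT1 (E. coli expressed) with 0.5 μM Ac-RHKK(Ac)W-NH2 and 120 μM βNAD+, 25 min at 25° C, HEPES pH 7.5, […]; formic acid stop. OAADPR or deacetylated peptide measured by mass spectrometry; EC1.5 = concentration giving 150% activity versus DMSO control; maximum activation also reported.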

| Structure (SMILES) | Emax [%] | TRP Activity (EC1.5, concentration of compound required to increase SIRT1 activity by 50% over control) | TRP Activity (EC1.5, concentration of compound required to increase SIRT1 activity by 50% over control) (hydrochloride) |
| --- | --- | --- | --- |
| O=C(Nc1ccccn1)N1c2nc(N3CCC[C@H]3C(F)(F)F)ccc2N2CCC[C@H]1C2 [Example 1, (9S)-N-(pyridin-2-yl)-2-((S)-2-(trifluoromethyl)pyrrolidin-1-yl)-8,9-dihydro-6H-5,9-methanopyrido[2,3-b][1,4]diazocine-10(7H)-carboxamide] | ≥ 150 | B (EC1.5 1-25 μM) | – |
| O=C(Nc1ccccn1)N1c2nc(N3CCCC(C(F)(F)F)C3)ccc2N2CCC[C@H]1C2 (single isomer, unassigned) [Example 11] | ≥ 150 | A (EC1.5<1 μM) | – |
| O=C(NC1CC1(F)F)c1ccc2c(n1)N(C(=O)Nc1cc(OC[C@H](O)CO)ccn1)[C@H]1CCCN2C1 (single isomer, unassigned) [Example 52] | – | A (EC1.5<1 μM) | – |
| O=C(Nc1cccc(OC[C@@H](O)CO)n1)N1c2nc(-c3cccc(C(F)(F)F)c3)c(Cl)cc2N2CCC[C@H]1C2 [Example 64, (9S)-3-chloro-N-(6-((S)-2,3-dihydroxypropoxy)pyridin-2-yl)-2-(3-(trifluoromethyl)phenyl)-8,9-dihydro-6H-5,9-methanopyrido[2,3-b][1,4]diazocine-10(7H)-carboxamide] | ≥ 150 | A (EC1.5<1 μM) | – |
| C[C@@H](NC(=O)c1ccc2c(n1)N(C(=O)Nc1ccc(OC[C@@H](O)CO)cn1)[C@H]1CCCN2C1)C(F)(F)F [Example 54, (9S)-N10-(5-((S)-2,3-dihydroxypropoxy)pyridin-2-yl)-N2-((R)-1,1,1-trifluoropropan-2-yl)-8,9-dihydro-6H-5,9-methanopyrido[2,3-b][1,4]diazocine-2,10(7H)-dicarboxamide] | ≥ 150 | A (EC1.5<1 μM) | – |
| O=C(Nc1cccnc1)N1c2nc(N3CCCC(C(F)(F)F)C3)ccc2N2CCC[C@H]1C2 (single isomer, unassigned) [Example 25] | ≥ 150 | A (EC1.5<1 μM) | – |
| O=C(Nc1cnc(OC[C@H](O)CO)nc1)N1c2nc(-c3cccc(C(F)(F)F)c3)c(Cl)cc2N2CCC[C@H]1C2 [Example 69, (9S)-3-chloro-N-(2-((R)-2,3-dihydroxypropoxy)pyrimidin-5-yl)-2-(3-(trifluoromethyl)phenyl)-8,9-dihydro-6H-5,9-methanopyrido[2,3-b][1,4]diazocine-10(7H)-carboxamide] | ≥ 150 | A (EC1.5<1 μM) | – |
| C[C@@H](NC(=O)c1ccc2c(n1)N(C(=O)Nc1cc(OC[C@H](O)CO)ccn1)[C@H]1CCCN2C1)C(F)(F)F [Example 34, (9S)-N10-(4-((R)-2,3-dihydroxypropoxy)pyridin-2-yl)-N2-((R)-1,1,1-trifluoropropan-2-yl)-8,9-dihydro-6H-5,9-methanopyrido[2,3-b][1,4]diazocine-2,10(7H)-dicarboxamide] | ≥ 150 | A (EC1.5<1 μM) | – |
| Cc1cc(C(=O)N[C@H](C)C(F)(F)F)nc2c1N1CCC[C@@H](C1)N2C(=O)Nc1ccc(OC[C@@H](O)CO)cn1 [Example 56, (9S)-N10-(5-((S)-2,3-dihydroxypropoxy)pyridin-2-yl)-4-methyl-N2-((R)-1,1,1-trifluoropropan-2-yl)-8,9-dihydro-6H-5,9-methanopyrido[2,3-b][1,4]diazocine-2,10(7H)-dicarboxamide] | ≥ 150 | A (EC1.5<1 μM) | – |
| Cc1cc(-c2ccc3c(n2)N(C(=O)Nc2cnccn2)[C@H]2CCCN3C2)ccn1 [Example 13, (9S)-2-(2-methylpyridin-4-yl)-N-(pyrazin-2-yl)-8,9-dihydro-6H-5,9-methanopyrido[2,3-b] [1,4] diazocine-10(7H)-carboxamide] | ≥ 150 | A (EC1.5<1 μM) | – |
| Cc1ccc2c(NC(=O)N3c4nc(C(=O)NC(CO)C(F)(F)F)ccc4N4CCC[C@H]3C4)n[nH]c2n1 (single isomer, unassigned) [Example 45] | ≥ 150 | B (EC1.5 1-25 μM) | – |
| O=C(Nc1ccccn1)N1c2nc(N3CCC(C(F)(F)F)C3)ccc2N2CCC[C@H]1C2 (single isomer, unassigned) [Example 31, hydrochloride] | – | – | A (EC1.5<1 μM) |
| Cc1cc(C(=O)N[C@H](C)C(F)(F)F)nc2c1N1CCC[C@@H](C1)N2C(=O)Nc1cc(OC[C@H](O)CO)ccn1 [Example 57, (9S)-N10-(4-((R)-2,3-dihydroxypropoxy)pyridin-2-yl)-4-methyl-N2-((R)-1,1,1-trifluoropropan-2-yl)-8,9-dihydro-6H-5,9-methanopyrido[2,3-b][1,4]diazocine-2,10(7H)-dicarboxamide] | ≥ 150 | A (EC1.5<1 μM) | – |
| Cc1ccc2c(NC(=O)N3c4nc(C(=O)NCC(F)(F)F)ccc4N4CCC[C@H]3C4)n[nH]c2n1 [Example 41, (9S)-N10-(6-methyl-1H-pyrazolo[3,4-b]pyridin-3-yl)-N2-(2,2,2-trifluoroethyl)-8,9-dihydro-6H-5,9-methanopyrido[2,3-b][1,4]diazocine-2,10(7H)-dicarboxamide] | ≥ 150 | A (EC1.5<1 μM) | – |
| O=C(Nc1ncc(OC[C@H](O)CO)cn1)N1c2nc(-c3cccc(C(F)(F)F)c3)c(Cl)cc2N2CCC[C@H]1C2 [Example 89, (9S)-3-chloro-N-(5-((R)-2,3-dihydroxypropoxy)pyrimidin-2-yl)-2-(3-(trifluoromethyl)phenyl)-8,9-dihydro-6H-5,9-methanopyrido[2,3-b][1,4]diazocine-10(7H)-carboxamide] | ≥ 150 | A (EC1.5<1 μM) | – |
| O=C(Nc1ccc(OC[C@@H](O)CO)nc1)N1c2nc(-c3cccc(C(F)(F)F)c3)c(Cl)cc2N2CCC[C@H]1C2 [Example 84, (9S)-3-chloro-N-(6-((S)-2,3-dihydroxypropoxy)pyridin-3-yl)-2-(3-(trifluoromethyl)phenyl)-8,9-dihydro-6H-5,9-methanopyrido[2,3-b][1,4]diazocine-10(7H)-carboxamide] | ≥ 150 | A (EC1.5<1 μM) | – |
| C[C@@H](NC(=O)c1ccc2c(n1)N(C(=O)Nc1ccon1)[C@H]1CCCN2C1)C(F)(F)F [Example 40, (9S)-N10-(isoxazol-3-yl)-N2-((R)-1,1,1-trifluoropropan-2-yl)-8,9-dihydro-6H-5,9-methanopyrido[2,3-b][1,4]diazocine-2,10(7H)-dicarboxamide] | ≥ 150 | A (EC1.5<1 μM) | – |
| COc1cncc(NC(=O)N2c3nc(-c4ccnc(C)c4)ccc3N3CCC[C@H]2C3)n1 [Example 20, (9S)-N-(6-methoxypyrazin-2-yl)-2-(2-methylpyridin-4-yl)-8,9-dihydro-6H-5,9-methanopyrido[2,3-b][1,4]diazocine-10(7H)-carboxamide] | ≥ 150 | A (EC1.5<1 μM) | – |
| Cc1cc(-c2ccc3c(n2)N(C(=O)Nc2ccccn2)[C@H]2CCCN3C2)ccn1 [Example 4, (9S)-2-(2-methylpyridin-4-yl)-N-(pyridin-2-yl)-8,9-dihydro-6H-5,9-methanopyrido[2,3-b][1,4]diazocine-10(7H)-carboxamide] | ≥ 150 | A (EC1.5<1 μM) | – |
| O=C(Nc1cccnc1)c1cc2c(nc1N1CCCC(C(F)(F)F)C1)N[C@H]1CCCN2C1 (single isomer, unassigned) [Example 60] | ≤ 150 | – | – |
